Test results taken from ChEMBL document CHEMBL1137265, “Macrolactin N, a new peptide deformylase inhibitor produced by Bacillus subtilis” (Bioorg Med Chem Lett, 2006).
≈ marks a conversion by molar mass, not a printed value.

Assays:
Escherichia coli = assay: Antibacterial activity against Escherichia coli KCTC 1924 by microdilution broth method; format: functional
Peptide deformylase = target: T1, Peptide deformylase (Staphylococcus aureus, UniProt P68826); assay: Inhibition of Staphylococcus aureus peptide deformylase in presence of substrate f-MAS
T1 sequence (P68826 whole entry): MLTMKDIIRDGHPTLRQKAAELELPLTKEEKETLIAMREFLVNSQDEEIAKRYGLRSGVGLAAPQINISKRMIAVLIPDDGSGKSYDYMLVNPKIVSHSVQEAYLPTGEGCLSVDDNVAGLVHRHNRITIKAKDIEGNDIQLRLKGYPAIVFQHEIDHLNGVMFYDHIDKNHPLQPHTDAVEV

Bacillus subtilis = assay: Antibacterial activity against Bacillus subtilis KCTC 1021 by microdilution broth method; format: functional
Staphylococcus aureus = assay: Antibacterial activity against Staphylococcus aureus RN4220 by microdilution broth method; format: functional

- MIC (Escherichia coli): 100 µg/mL (≈ 259 µM)
- IC50 (Peptide deformylase): 7.5 µM
- MIC50 (Bacillus subtilis): 100 µg/mL (≈ 259 µM)
- MIC50 (Staphylococcus aureus): 100 µg/mL (≈ 259 µM)
Structure (SMILES): CC1CCC/C=C/CCC(=O)CCC/C=C\C=C\[C@@H](O)C/C=C/C=C\C(=O)O1 (some centres undefined)
